# Test results reported in patent publication US20250230188A1, “METAGENOME-GUIDED BIOSYNTHESIS AND COMPOUNDS AND METHODS OF USE THEREOF” (The Rockefeller University, priority 2022, published 2025).
# System: E. faecium com15
# Experiment: Syn-BNP MIC against ESKAPE pathogens: E. faecium
# Assay type: cell-based, Enterococcus faecium
# Settings: E. faecium
# Method: (§1) All syn-BNPs, as well as the parent antibiotic albicidin were assayed for antimicrobial activity against the ESKAPE pathogens (Enterococcus faecium, Staphylococcus aureus, Klebsiella pneumoniae, Acinetobacter baumannii, Pseudomonas aeruginosa, and Enterobacter species), which are a collection of bacteria most commonly associated with antibacterial resistant nosocomial infections. […]
row,SMILES,fold more potent than albicidin [fold]
1,CO[C@@H](C(N)=O)[C@H](NC(=O)c1ccc(NC(=O)[C@@H](N)Cc2ccccc2)cc1)C(=O)Nc1ccc(C(=O)Nc2ccc(C(=O)Nc3ccc(C(=O)O)c(O)c3OC(C)C)c(O)c2OC(C)C)cc1 [PABA48],16

# Same assay, conditions: E. faecium com15, Gram-positive
row,SMILES,MIC [µg/mL]
1,CO[C@@H](C(N)=O)[C@H](NC(=O)c1ccc(NC(=O)[C@@H](N)Cc2ccc(O)cc2)cc1)C(=O)Nc1ccc(C(=O)Nc2ccc(C(=O)Nc3ccc(C(=O)O)cc3)c(O)c2OC(C)C)cc1 [PABA57],>8
2,CO[C@@H](C(N)=O)[C@H](NC(=O)c1ccc(NC(=O)[C@@H](N)Cc2ccccc2)cc1)C(=O)Nc1ccc(C(=O)Nc2ccc(C(=O)Nc3ccc(C(=O)O)c(O)c3OC(C)C)c(O)c2OC(C)C)cc1 [PABA48],0.125

# System: S. aureus SH1000
# Experiment: Syn-BNP MIC against ESKAPE pathogens: S. aureus
# Assay type: cell-based, Staphylococcus aureus
# Settings: S. aureus
# Method: as §1
row,SMILES,fold more potent than albicidin [fold]
1,CO[C@@H](C(N)=O)[C@H](NC(=O)c1ccc(NC(=O)[C@@H](N)Cc2ccccc2)cc1)C(=O)Nc1ccc(C(=O)Nc2ccc(C(=O)Nc3ccc(C(=O)O)c(O)c3OC(C)C)c(O)c2OC(C)C)cc1 [PABA48],2

# Same assay, conditions: S. aureus SH1000, Gram-positive
row,SMILES,MIC [µg/mL]
1,CO[C@@H](C(N)=O)[C@H](NC(=O)c1ccc(NC(=O)[C@@H](N)Cc2ccc(O)cc2)cc1)C(=O)Nc1ccc(C(=O)Nc2ccc(C(=O)Nc3ccc(C(=O)O)cc3)c(O)c2OC(C)C)cc1 [PABA57],>8
2,CO[C@@H](C(N)=O)[C@H](NC(=O)c1ccc(NC(=O)[C@@H](N)Cc2ccccc2)cc1)C(=O)Nc1ccc(C(=O)Nc2ccc(C(=O)Nc3ccc(C(=O)O)c(O)c3OC(C)C)c(O)c2OC(C)C)cc1 [PABA48],0.25

# System: K. pneumoniae 10031
# Experiment: Syn-BNP MIC against ESKAPE pathogens: K. pneumoniae
# Assay type: cell-based, Klebsiella pneumoniae
# Settings: K. pneumoniae
# Method: (§2) All syn-BNPs, as well as the parent antibiotic albicidin were assayed for antimicrobial activity against the ESKAPE pathogens (Enterococcus faecium, Staphylococcus aureus, Klebsiella pneumoniae, Acinetobacter baumannii, Pseudomonas aeruginosa, and Enterobacter species), which are a collection of bacteria most commonly associated with antibacterial resistant nosocomial infections.
row,SMILES,fold more potent than albicidin [fold]
1,CO[C@@H](C(N)=O)[C@H](NC(=O)c1ccc(NC(=O)[C@@H](N)Cc2ccccc2)cc1)C(=O)Nc1ccc(C(=O)Nc2ccc(C(=O)Nc3ccc(C(=O)O)c(O)c3OC(C)C)c(O)c2OC(C)C)cc1 [PABA48],> 64

# Same assay, conditions: K. pneumoniae 10031, Gram-negative
row,SMILES,MIC [µg/mL]
1,CO[C@@H](C(N)=O)[C@H](NC(=O)c1ccc(NC(=O)[C@@H](N)Cc2ccc(O)cc2)cc1)C(=O)Nc1ccc(C(=O)Nc2ccc(C(=O)Nc3ccc(C(=O)O)cc3)c(O)c2OC(C)C)cc1 [PABA57],1
2,CO[C@@H](C(N)=O)[C@H](NC(=O)c1ccc(NC(=O)[C@@H](N)Cc2ccccc2)cc1)C(=O)Nc1ccc(C(=O)Nc2ccc(C(=O)Nc3ccc(C(=O)O)c(O)c3OC(C)C)c(O)c2OC(C)C)cc1 [PABA48],0.125

# System: A. baumannii
# Experiment: Syn-BNP MIC against ESKAPE pathogens: A. baumannii
# Assay type: cell-based, Acinetobacter baumannii
# Settings: not given
# Method: as §2
row,SMILES,MIC compared with albicidin
1,CO[C@@H](C(N)=O)[C@H](NC(=O)c1ccc(NC(=O)[C@@H](N)Cc2ccccc2)cc1)C(=O)Nc1ccc(C(=O)Nc2ccc(C(=O)Nc3ccc(C(=O)O)c(O)c3OC(C)C)c(O)c2OC(C)C)cc1 [PABA48],same MIC as albicidin

# Same assay, conditions: Gram-negative
row,SMILES,MIC [µg/mL]
1,CO[C@@H](C(N)=O)[C@H](NC(=O)c1ccc(NC(=O)[C@@H](N)Cc2ccc(O)cc2)cc1)C(=O)Nc1ccc(C(=O)Nc2ccc(C(=O)Nc3ccc(C(=O)O)cc3)c(O)c2OC(C)C)cc1 [PABA57],>8
2,CO[C@@H](C(N)=O)[C@H](NC(=O)c1ccc(NC(=O)[C@@H](N)Cc2ccccc2)cc1)C(=O)Nc1ccc(C(=O)Nc2ccc(C(=O)Nc3ccc(C(=O)O)c(O)c3OC(C)C)c(O)c2OC(C)C)cc1 [PABA48],0.125

# System: P. aeruginosa
# Experiment: Syn-BNP MIC against ESKAPE pathogens: P. aeruginosa
# Assay type: cell-based, Pseudomonas aeruginosa
# Settings: Gram-negative
# Method: as §2
row,SMILES,MIC [µg/mL]
1,CO[C@@H](C(N)=O)[C@H](NC(=O)c1ccc(NC(=O)[C@@H](N)Cc2ccc(O)cc2)cc1)C(=O)Nc1ccc(C(=O)Nc2ccc(C(=O)Nc3ccc(C(=O)O)cc3)c(O)c2OC(C)C)cc1 [PABA57],>8
2,CO[C@@H](C(N)=O)[C@H](NC(=O)c1ccc(NC(=O)[C@@H](N)Cc2ccccc2)cc1)C(=O)Nc1ccc(C(=O)Nc2ccc(C(=O)Nc3ccc(C(=O)O)c(O)c3OC(C)C)c(O)c2OC(C)C)cc1 [PABA48],>8

# System: E. cloacae 13047
# Experiment: Syn-BNP MIC against ESKAPE pathogens: E. cloacae
# Assay type: cell-based, Enterobacter cloacae
# Settings: E. cloacae 13047, Gram-negative
# Method: as §2
row,SMILES,MIC [µg/mL]
1,CO[C@@H](C(N)=O)[C@H](NC(=O)c1ccc(NC(=O)[C@@H](N)Cc2ccc(O)cc2)cc1)C(=O)Nc1ccc(C(=O)Nc2ccc(C(=O)Nc3ccc(C(=O)O)cc3)c(O)c2OC(C)C)cc1 [PABA57],>8
2,CO[C@@H](C(N)=O)[C@H](NC(=O)c1ccc(NC(=O)[C@@H](N)Cc2ccccc2)cc1)C(=O)Nc1ccc(C(=O)Nc2ccc(C(=O)Nc3ccc(C(=O)O)c(O)c3OC(C)C)c(O)c2OC(C)C)cc1 [PABA48],>8

# System: E. coli 25922
# Experiment: Syn-BNP MIC against E. coli
# Assay type: cell-based, Escherichia coli
# Settings: E. coli 25922, Gram-negative
row,SMILES,MIC [µg/mL]
1,CO[C@@H](C(N)=O)[C@H](NC(=O)c1ccc(NC(=O)[C@@H](N)Cc2ccc(O)cc2)cc1)C(=O)Nc1ccc(C(=O)Nc2ccc(C(=O)Nc3ccc(C(=O)O)cc3)c(O)c2OC(C)C)cc1 [PABA57],2
2,CO[C@@H](C(N)=O)[C@H](NC(=O)c1ccc(NC(=O)[C@@H](N)Cc2ccccc2)cc1)C(=O)Nc1ccc(C(=O)Nc2ccc(C(=O)Nc3ccc(C(=O)O)c(O)c3OC(C)C)c(O)c2OC(C)C)cc1 [PABA48],0.125

# System: E. coli-BL21 (pET28c)
# Experiment: not given
# Assay type: cell-based, Escherichia coli
# Settings: empty vector
# From the text: (§3) As circumventing common antibiotic resistance mechanisms was likely to play a key role in the natural selection of antibiotic congeners, the present studies investigated whether some of the congeners evolved to evade AlbD-mediated cleavage. To determine the susceptibility of the herein described BGC-inspired analogs to AlbD encoded resistance, the MIC of each syn-BNP against E. coli engineered to express AlbD was compared to that of E. coli containing an empty expression vector.
row,SMILES,MIC [µg/mL]
1,CO[C@@H](C(N)=O)[C@H](NC(=O)c1ccc(NC(=O)[C@@H](N)Cc2ccc(O)cc2)cc1)C(=O)Nc1ccc(C(=O)Nc2ccc(C(=O)Nc3ccc(C(=O)O)cc3)c(O)c2OC(C)C)cc1 [PABA57],0.5
2,CO[C@@H](C(N)=O)[C@H](NC(=O)c1ccc(NC(=O)[C@@H](N)Cc2ccccc2)cc1)C(=O)Nc1ccc(C(=O)Nc2ccc(C(=O)Nc3ccc(C(=O)O)c(O)c3OC(C)C)c(O)c2OC(C)C)cc1 [PABA48],0.06

# System: E. coli-BL21 (pET28c-AlbD)
# Experiment: not given
# Assay type: cell-based, Escherichia coli
# Settings: AlbD expressing strain versus empty vector strain
# From the text: as §3
row,SMILES,Fold increase in MIC [fold]
1,CO[C@@H](C(N)=O)[C@H](NC(=O)c1ccc(NC(=O)[C@@H](N)Cc2ccc(O)cc2)cc1)C(=O)Nc1ccc(C(=O)Nc2ccc(C(=O)Nc3ccc(C(=O)O)cc3)c(O)c2OC(C)C)cc1 [PABA57],>128
2,CO[C@@H](C(N)=O)[C@H](NC(=O)c1ccc(NC(=O)[C@@H](N)Cc2ccccc2)cc1)C(=O)Nc1ccc(C(=O)Nc2ccc(C(=O)Nc3ccc(C(=O)O)c(O)c3OC(C)C)c(O)c2OC(C)C)cc1 [PABA48],>133

# Same assay, conditions: E. coli-BL21 (pET28c-AlbD)
row,SMILES,MIC [µg/mL]
1,CO[C@@H](C(N)=O)[C@H](NC(=O)c1ccc(NC(=O)[C@@H](N)Cc2ccc(O)cc2)cc1)C(=O)Nc1ccc(C(=O)Nc2ccc(C(=O)Nc3ccc(C(=O)O)cc3)c(O)c2OC(C)C)cc1 [PABA57],> 64
2,CO[C@@H](C(N)=O)[C@H](NC(=O)c1ccc(NC(=O)[C@@H](N)Cc2ccccc2)cc1)C(=O)Nc1ccc(C(=O)Nc2ccc(C(=O)Nc3ccc(C(=O)O)c(O)c3OC(C)C)c(O)c2OC(C)C)cc1 [PABA48],> 8
